Data taken from ChEMBL document CHEMBL5715937, “In vitro activity of Bcr-Abl inhibitors AMN107 and BMS-354825 against clinically relevant imatinib-resistant Abl kinase domain mutants” (Cancer Res, 2005).
Active and inactive are the calls of the source. The calls are words filed in the database; no cut-off is given here.

How the values were obtained:
[1] = Inhibition of BCR-ABL L387M mutant (unknown origin) expressed in mouse BaF3 cells assessed as inhibition of cell growth incubated for 72 hrs by […] CellTiter96 viability analysis; conditions: BaF3, time 72 hrs, condition chronic myelogenous leukemia
cells [2] = conditions: Mus musculus, BaF3, 3 h
BaF3 [3] = test: Induction of apoptosis in mouse BaF3 cells expressing Bcr-Abl F311L mutant at 30 to 300 nM incubated for 72 hrs by Annexin V-phycoerythrin and 7-amino-actinomycin D staining based PCA instrument analysis; type: functional, cell-based; conditions: dose 30-300 nM
cells [4] = conditions: Mus musculus, BaF3, 3 h; remark: listed apart in the source
BaF3 [5] = test: Induction of apoptosis in mouse BaF3 cells expressing Bcr-Abl F359V mutant assessed as increase in apoptotic cells at 1500 nM incubated for 72 hrs by Annexin V-phycoerythrin and 7-amino-actinomycin D staining based PCA instrument analysis relative to control; type: functional
[6] = Inhibition of BCR-ABL F317L mutant (unknown origin) expressed in mouse BaF3 cells assessed as inhibition of cell growth incubated for 72 hrs by […] CellTiter96 viability analysis
cells [7] = conditions: Mus musculus, BaF3, 3 h; remark: listed apart in the source
BaF3 [8] = test: Induction of apoptosis in mouse BaF3 cells expressing Bcr-Abl M244V mutant assessed as increase in apoptotic cells at 1500 nM incubated for 72 hrs by Annexin V-phycoerythrin and 7-amino-actinomycin D staining based PCA instrument analysis relative to control; type: functional
BaF3 [9] = test: Induction of apoptosis in mouse BaF3 cells expressing Bcr-Abl Y253H mutant assessed as increase in apoptotic cells at 1500 nM incubated for 72 hrs by Annexin V-phycoerythrin and 7-amino-actinomycin D staining based PCA instrument analysis relative to control; type: functional
[10] = Inhibition of BCR-ABL M244V mutant (unknown origin) expressed in mouse BaF3 cells assessed as inhibition of cell growth incubated for 72 hrs by […] CellTiter96 viability analysis; conditions: BaF3, time 72 hrs, condition chronic myelogenous leukemia
cells [11] = conditions: Mus musculus, BaF3, 3 h; remark: listed apart in the source
BaF3 [12] = test: Induction of apoptosis in mouse BaF3 cells expressing wild-type Bcr-Abl at 30 to 300 nM incubated for 72 hrs by Annexin V-phycoerythrin and 7-amino-actinomycin D staining based PCA instrument analysis; type: functional, cell-based; conditions: dose 30-300 nM
[13] = Inhibition of BCR-ABL Y253F mutant (unknown origin) expressed in mouse BaF3 cells assessed as inhibition of cell growth incubated for 72 hrs by […] CellTiter96 viability analysis
cells [14] = conditions: Mus musculus, BaF3, 3 h; remark: listed apart in the source
BaF3 [15] = test: Induction of apoptosis in mouse BaF3 cells expressing wild-type Bcr-Abl assessed as increase in apoptotic cells at 1500 nM incubated for 72 hrs by Annexin V-phycoerythrin and 7-amino-actinomycin D staining based PCA instrument analysis relative to control; type: functional
BaF3 [16] = test: Induction of apoptosis in mouse BaF3 cells expressing Bcr-Abl L387M mutant assessed as increase in apoptotic cells at 1500 nM incubated for 72 hrs by Annexin V-phycoerythrin and 7-amino-actinomycin D staining based PCA instrument analysis relative to control; type: functional
BaF3 [17] = test: Induction of apoptosis in mouse BaF3 cells expressing Bcr-Abl E255V mutant assessed as increase in apoptotic cells at 1500 nM incubated for 72 hrs by Annexin V-phycoerythrin and 7-amino-actinomycin D staining based PCA instrument analysis relative to control; type: functional
cells [18] = conditions: Mus musculus, BaF3, 3 h; remark: listed apart in the source
BaF3 [19] = test: Induction of apoptosis in mouse BaF3 cells expressing Bcr-Abl M351T mutant at 30 to 300 nM incubated for 72 hrs by Annexin V-phycoerythrin and 7-amino-actinomycin D staining based PCA instrument analysis; type: functional, cell-based; conditions: dose 30-300 nM
cells [20] = conditions: Mus musculus, BaF3, 3 h; remark: listed apart in the source
BaF3 [21] = test: Induction of apoptosis in mouse BaF3 cells expressing Bcr-Abl M244V mutant at 30 to 300 nM incubated for 72 hrs by Annexin V-phycoerythrin and 7-amino-actinomycin D staining based PCA instrument analysis; type: functional, cell-based; conditions: dose 30-300 nM
cells [22] = conditions: Mus musculus, BaF3, 72 h
[23] = Inhibition of BCR-ABL L387M mutant (unknown origin) expressed in mouse BaF3 cells assessed as inhibition of tyrosine phosphorylation incubated for 3 hrs by immunoblotting analysis; type: cell-based; conditions: BaF3, 3 h
BaF3 [24] = test: Induction of apoptosis in mouse BaF3 cells at 30 to 1500 nM incubated for 72 hrs by Annexin V-phycoerythrin and 7-amino-actinomycin D staining based PCA instrument analysis relative to control; type: toxicity, cell-based; conditions: baf3, 72 h, 1.5 µM, dose 30-1500 nM
cells [25] = conditions: Mus musculus, BaF3, 3 h; remark: listed apart in the source
BaF3 [26] = test: Induction of apoptosis in mouse BaF3 cells expressing Bcr-Abl F317L mutant at 30 to 300 nM incubated for 72 hrs by Annexin V-phycoerythrin and 7-amino-actinomycin D staining based PCA instrument analysis; type: functional, cell-based; conditions: dose 30-300 nM
BaF3 [27] = test: Induction of apoptosis in mouse BaF3 cells expressing Bcr-Abl Q252H mutant at 30 to 300 nM incubated for 72 hrs by Annexin V-phycoerythrin and 7-amino-actinomycin D staining based PCA instrument analysis; type: functional, cell-based; conditions: dose 30-300 nM
[28] = Inhibition of BCR-ABL E255K mutant (unknown origin) expressed in mouse BaF3 cells assessed as inhibition of cell growth incubated for 72 hrs by […] CellTiter96 viability analysis
[29] = Inhibition of BCR-ABL F359V mutant (unknown origin) expressed in mouse BaF3 cells assessed as inhibition of cell growth incubated for 72 hrs by […] CellTiter96 viability analysis
cells [30] = conditions: Mus musculus, BaF3, 3 h; remark: listed apart in the source
cells [31] = conditions: Mus musculus, BaF3, 3 h; remark: listed apart in the source
BaF3 [32] = test: Induction of apoptosis in mouse BaF3 cells expressing Bcr-Abl V379l mutant at 30 to 300 nM incubated for 72 hrs by Annexin V-phycoerythrin and 7-amino-actinomycin D staining based PCA instrument analysis; type: functional, cell-based; conditions: dose 30-300 nM
[33] = Inhibition of BCR-ABL Y253H mutant (unknown origin) expressed in mouse BaF3 cells assessed as inhibition of cell growth incubated for 72 hrs by […] CellTiter96 viability analysis
[34] = Inhibition of BCR-ABL H396R mutant (unknown origin) expressed in mouse BaF3 cells assessed as inhibition of cell growth incubated for 72 hrs by […] CellTiter96 viability analysis
BaF3 [35] = test: Induction of apoptosis in mouse BaF3 cells expressing Bcr-Abl L387M mutant at 30 to 300 nM incubated for 72 hrs by Annexin V-phycoerythrin and 7-amino-actinomycin D staining based PCA instrument analysis; type: functional, cell-based; conditions: dose 30-300 nM
cells [36] = conditions: Mus musculus, BaF3, 3 h; remark: listed apart in the source
[37] = BaF3, time 72 hrs, condition chronic myelogenous leukemia

Cc1cn(-c2cc(NC(=O)c3ccc(C)c(Nc4nccc(-c5cccnc5)n4)c3)cc(C(F)(F)F)c2)cn1 [NILOTINIB]
IC90 [1]: 115 nM | IC50 (cells [2]): 8 nM | Activity (BaF3 [3]): Active | IC50 (cells [4]): 70 nM | Activity (BaF3 [5]): >90% | IC50 ([6]; BaF3, 72 h): 50 nM | IC90 [6, 37]: 116 nM | IC50 (cells [7]): 22 nM | Activity (BaF3 [8]): >90% | Activity (BaF3 [9]): 65% | IC90 [10]: 56 nM | IC50 (cells [11]): > 5000 nM | Activity (BaF3 [12]): Active | IC50 ([13]; BaF3, 72 h): 125 nM | IC90 [13, 37]: 215 nM | IC50 (cells [14]): 8 nM | Activity (BaF3 [15]): >90% | Activity (BaF3 [16]): >90% | Activity (BaF3 [17]): 65% | IC50 (cells [18]): 155 nM | Activity (BaF3 [19]): Active | IC50 (cells [20]): 15 nM | Activity (BaF3 [21]): Active | IC50 (cells [22]): > 2000 nM | IC50 [23]: 33 nM | Activity (BaF3 [24]): Non-Toxic | IC50 (cells [25]): 43 nM | Activity (BaF3 [26]): Active | Activity (BaF3 [27]): Active | IC50 ([28]; BaF3, 72 h): 200 nM | IC90 [28, 37]: 415 nM | IC50 ([29]; BaF3, 72 h): 175 nM | IC90 [29, 37]: 385 nM | IC50 (cells [30]): 47 nM | IC50 (cells [31]): 7 nM | Activity (BaF3 [32]): Active | IC50 ([33]; BaF3, 72 h): 450 nM | IC90 [33, 37]: 1020 nM | IC50 ([34]; BaF3, 72 h): 41 nM | IC90 [34, 37]: 73 nM | Activity (BaF3 [35]): Active | IC50 (cells [36]): 55 nM
